Laboratory results from US20220009894A1, “1,2,3,4-TETRAHYDROQUINOXALINE DERIVATIVE, PREPARATION METHOD THEREFOR AND APPLICATION THEREOF” (Abbisko Therapeutics Co., Ltd., priority 2019, published 2022).

Key:
[1] = target: T1, RORγt-LBD (Homo sapiens, UniProt P51449); assay: Time-resolved fluorescence resonance energy-transfer assay (TR-FRET), co-activator peptide recruitment; format: biochemical; design: TR-FRET Biochemical Amax: unit not given here; conditions: for EC50: His-RORγt-LBD 30 nM, SRC peptide 500 nM, agonistic activity, averages of one or more measurements, read-out: TR-FRET Biochemical EC50/; for TR-FRET Biochemical Amax: upper activation limit, His-RORγt-LBD, SRC peptide
T1 sequence (P51449 269-508 limits assumed): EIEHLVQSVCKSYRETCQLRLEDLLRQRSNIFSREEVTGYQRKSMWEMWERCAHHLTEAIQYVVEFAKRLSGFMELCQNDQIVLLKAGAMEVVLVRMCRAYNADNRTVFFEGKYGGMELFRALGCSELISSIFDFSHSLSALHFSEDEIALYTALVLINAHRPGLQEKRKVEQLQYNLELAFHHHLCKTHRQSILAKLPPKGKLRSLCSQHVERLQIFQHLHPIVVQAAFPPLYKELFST
Outline: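 Eu-anti-His-labelled His-RORγt-LBD (30 nM final) recruits biotin-SRC co-activator peptide (500 nM final), detected via APC-streptavidin (5 nM) and Eu-anti-His (0.25 nM). Buffer was Tris/KCl/EDTA at pH 7.0 with 0.01% Triton X-100 and 1 mM DTT. Compounds were tested at 7 points in 5-fold dilutions. Plates were incubated overnight at 4 °C then 1 h at RT, and agonism was read as the 665/615 nm ratio.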

[2] = target: T2, RORγt (Homo sapiens, UniProt P51449); assay: RORγt cellular reporter gene detection assay; format: cell-based; conditions: 24 hrs; for EC50: HEK 293 cells co-transfected with pFN26A-RORγt-LBD and pG14.35, in presence of antagonist Ursolic acid, top concentration 50 μM; for Cellular Reporter Assay Amax: upper activation limit, HEK 293 cells, in presence of antagonist Ursolic acid;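 on Cellular Reporter Assay Amax: Ursolic Acid added as 5 µL of 20 µM medium per well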
T2 construct: The plasmid of pFN26A-RORγt-LBD and pG14.35 (Promega, Cat. No. E1370) were co-transfected into HEK 293 cells; expressed in transfected cells; host or cells: HEK 293 cells (Cat. No. GNHu18)
T2 sequence (P51449 269-508 limits assumed): T1 sequence (P51449 269-508 limits assumed)
Outline: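 HEK293 cells co-transfected with RORγt-LBD and luciferase reporter plasmids, treated with Ursolic acid antagonist plus compound in 4-fold dilutions from 50 μM for 24 h at 37° C. Firefly and Renilla luminescence read; EC50 and Amax from four-parameter fit.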

Compound | EC50 [1] [nM] | TR-FRET Biochemical Amax [1] | EC50 [2] [nM] | Cellular Reporter Assay Amax [2]
CN1c2ccc(C3=CC(C)(C)OC(C)(C)C3)cc2N(S(=O)(=O)c2cccc(C(F)(F)F)c2)C[C@@H]1CCC(=O)O [Example 118, (S)-3-(1-methyl-6-(2,2,6,6-tetramethyl-3,6-dihydro-2H-pyran-4-yl)-4-((3-(trifluoromethyl)phenyl)sulfonyl)-1,2,3,4-tetrahydroquinoxalin-2-yl)propanoic acid] | 204 | 0.36 | 223 | 1.0
CN1c2ccc(C3CC(C)(C)OC(C)(C)C3)cc2N(S(=O)(=O)c2cccc(C(F)(F)F)c2)C[C@@H]1CCC(=O)O [Example 119, (S)-3-(1-methyl-6-(2,2,6,6-tetramethyltetrahydro-2H-pyran-4-yl)-4-((3-(trifluoromethyl)phenyl)sulfonyl)-1,2,3,4-tetrahydroquinoxalin-2-yl)propanoic acid] | 31.5 | 0.41 | 295 | 1.1
COC(=O)CC[C@H]1CN(S(=O)(=O)c2cccc(C(F)(F)F)c2)c2cc(/C=C(\C)c3c(F)cccc3Cl)ccc2N1C [Example 120, methyl (S,E)-3-(6-(2-(2-chloro-6-fluorophenyl)prop-1-en-1-yl)-1-methyl-4-((3-(trifluoromethyl)phenyl)sulfonyl)-1,2,3,4-tetrahydroquinoxalin-2-yl)propanoate] | 64.9 | 1.07 | 157 | 5.7
C/C(=C\c1ccc2c(c1)N(S(=O)(=O)c1cccc(C(F)(F)F)c1)C[C@@H]1C[C@](C)(OCCC(=O)O)CCN21)c1c(F)cccc1Cl [Example 121] | 12.1 | 0.98 | 378 | 2.4
C[C@@]1(OCCC(N)=O)CCN2c3ccc(-c4cc(F)cc(OC(F)F)c4)cc3N(S(=O)(=O)c3cccc(C(F)(F)F)c3)C[C@@H]2C1 [Example 122, 3-(((6aS,8R)-3-(3-(difluoromethoxy)-5-fluorophenyl)-8-methyl-5-((3-(trifluoromethyl)phenyl)sulfo-nyl)-6,6a,7,8,9,10-hexahydro-5H-pyrido[1,2-a]quinoxalin-8-yl)oxy) propanamide] | 98.4 | 0.68 | 447 | 1.1
